Assay results taken from the NIST ThermoML archive (doi:10.1021/acs.jced.5b00367).
Numbers after ± are expanded uncertainties.

Assay: wn = mass fraction of the nth substance listed
Details: 101 kPa, Liquid, Alternating current cell with electrodes, w1 = 0.01

CCCCCCCCCC[N+](CC)(CC)CCCCCCCCCC.[Br-] [didecyldiethylammonium bromide] + O
Details	electrical conductivity [S/m]
277.55 K	0.0116 ± 0.0046
277.75 K	0.0115 ± 0.0046
277.85 K	0.0116 ± 0.0046
277.95 K	0.0116 ± 0.0046
278.15 K	0.0117 ± 0.0047
278.25 K	0.0117 ± 0.0047
278.35 K	0.0117 ± 0.0047
278.45 K	0.0116 ± 0.0046
278.55 K	0.0116 ± 0.0046
278.65 K	0.0116 ± 0.0046
278.75 K	0.0117 ± 0.0047
278.85 K	0.0117 ± 0.0047
279.05 K	0.0118 ± 0.0047
279.15 K	0.0118 ± 0.0047
279.25 K	0.0118 ± 0.0047
279.35 K	0.0119 ± 0.0047
279.55 K	0.012 ± 0.0048
279.65 K	0.012 ± 0.0048
279.85 K	0.012 ± 0.0048
279.95 K	0.012 ± 0.0048
280.15 K	0.0121 ± 0.0048
280.25 K	0.0121 ± 0.0049
280.35 K	0.0122 ± 0.0049
280.45 K	0.0122 ± 0.0049
280.55 K	0.0123 ± 0.0049
280.65 K	0.0123 ± 0.0049
280.75 K	0.0123 ± 0.0049
280.95 K	0.0123 ± 0.0049
281.05 K	0.0124 ± 0.005
281.15 K	0.0124 ± 0.005
281.25 K	0.0124 ± 0.005
281.35 K	0.0125 ± 0.005
281.45 K	0.0126 ± 0.005
281.55 K	0.0126 ± 0.005
281.65 K	0.0127 ± 0.0051
281.75 K	0.0127 ± 0.0051
281.85 K	0.0127 ± 0.0051
281.95 K	0.0127 ± 0.0051
282.05 K	0.0128 ± 0.0051
282.15 K	0.0129 ± 0.0051
282.35 K	0.0128 ± 0.0051
282.45 K	0.0129 ± 0.0052
282.55 K	0.013 ± 0.0052
282.65 K	0.013 ± 0.0052
282.75 K	0.0131 ± 0.0052
282.85 K	0.0131 ± 0.0052
282.95 K	0.0131 ± 0.0053
283.05 K	0.0132 ± 0.0053
283.15 K	0.0132 ± 0.0053
283.25 K	0.0133 ± 0.0053
283.35 K	0.0133 ± 0.0053
283.45 K	0.0134 ± 0.0053
283.55 K	0.0134 ± 0.0053
283.75 K	0.0135 ± 0.0054
283.85 K	0.0136 ± 0.0054
283.95 K	0.0136 ± 0.0054
284.05 K	0.0136 ± 0.0054
284.15 K	0.0137 ± 0.0055
284.25 K	0.0137 ± 0.0055
284.35 K	0.0138 ± 0.0055
284.45 K	0.0139 ± 0.0056
284.55 K	0.0138 ± 0.0055
284.65 K	0.0139 ± 0.0056
284.75 K	0.014 ± 0.0056
284.85 K	0.0141 ± 0.0056
284.95 K	0.0141 ± 0.0056
285.05 K	0.0143 ± 0.0057
285.15 K	0.0143 ± 0.0057
285.25 K	0.0142 ± 0.0057
285.35 K	0.0144 ± 0.0058
285.45 K	0.0145 ± 0.0058
285.55 K	0.0146 ± 0.0058
285.65 K	0.0146 ± 0.0058
285.75 K	0.0148 ± 0.0059
285.85 K	0.0147 ± 0.0059
285.95 K	0.015 ± 0.006
286.05 K	0.015 ± 0.006
286.15 K	0.0152 ± 0.0061
286.25 K	0.0152 ± 0.0061
286.35 K	0.0154 ± 0.0062
286.45 K	0.0155 ± 0.0062
286.55 K	0.0157 ± 0.0063
286.65 K	0.0158 ± 0.0063
286.75 K	0.016 ± 0.0064
286.85 K	0.0161 ± 0.0065
286.95 K	0.0164 ± 0.0066
287.05 K	0.0164 ± 0.0066
287.15 K	0.0167 ± 0.0067
287.25 K	0.0169 ± 0.0067
287.35 K	0.0172 ± 0.0069
287.45 K	0.0175 ± 0.007
287.55 K	0.0177 ± 0.0071
287.65 K	0.0179 ± 0.0072
287.75 K	0.0182 ± 0.0073
287.85 K	0.0186 ± 0.0075
287.95 K	0.0189 ± 0.0076
288.05 K	0.0192 ± 0.0077
288.15 K	0.0196 ± 0.0079
288.25 K	0.0201 ± 0.0081
288.35 K	0.0206 ± 0.0083
288.45 K	0.021 ± 0.0084
288.55 K	0.0213 ± 0.0086
288.65 K	0.0218 ± 0.0087
288.75 K	0.022 ± 0.0088
288.85 K	0.0225 ± 0.009
288.95 K	0.0227 ± 0.0091
289.05 K	0.0228 ± 0.0091
289.15 K	0.0233 ± 0.0093
289.25 K	0.0238 ± 0.0095
289.35 K	0.0241 ± 0.0097
289.45 K	0.0243 ± 0.0098
289.55 K	0.0249 ± 0.01
289.75 K	0.0256 ± 0.01
289.85 K	0.0262 ± 0.011
289.95 K	0.0267 ± 0.011
290.05 K	0.0274 ± 0.011
290.15 K	0.028 ± 0.011
290.25 K	0.0287 ± 0.012
290.35 K	0.0297 ± 0.012
290.45 K	0.0305 ± 0.012
290.55 K	0.0311 ± 0.013
290.65 K	0.0319 ± 0.013
290.75 K	0.0329 ± 0.013
290.85 K	0.0339 ± 0.014
290.95 K	0.0352 ± 0.014
291.15 K	0.0365 ± 0.015
291.25 K	0.0379 ± 0.015
291.35 K	0.0395 ± 0.016
291.45 K	0.0401 ± 0.016
291.55 K	0.0419 ± 0.017
291.65 K	0.0447 ± 0.018
291.75 K	0.0451 ± 0.018
291.85 K	0.047 ± 0.019
291.95 K	0.0496 ± 0.021
292.05 K	0.0526 ± 0.022
292.15 K	0.0559 ± 0.023
292.25 K	0.0648 ± 0.027
292.35 K	0.0649 ± 0.026
292.45 K	0.0649 ± 0.026
292.55 K	0.0676 ± 0.027
292.65 K	0.0687 ± 0.028
292.75 K	0.0704 ± 0.028
292.85 K	0.0711 ± 0.029
292.95 K	0.0714 ± 0.029
293.05 K	0.0718 ± 0.029
293.15 K	0.0718 ± 0.029
293.35 K	0.0721 ± 0.029
293.45 K	0.0722 ± 0.029
293.55 K	0.0723 ± 0.029
293.65 K	0.0724 ± 0.029
293.75 K	0.0725 ± 0.029
293.85 K	0.0726 ± 0.029
293.95 K	0.0726 ± 0.029
294.05 K	0.0727 ± 0.029
294.15 K	0.0728 ± 0.029
294.35 K	0.0729 ± 0.029
294.45 K	0.073 ± 0.029
294.55 K	0.0731 ± 0.029
294.65 K	0.0732 ± 0.029
294.75 K	0.0732 ± 0.029
294.85 K	0.0733 ± 0.029
294.95 K	0.0734 ± 0.029
295.05 K	0.0735 ± 0.029
295.15 K	0.0737 ± 0.029
295.25 K	0.0736 ± 0.029
295.35 K	0.0738 ± 0.029
295.45 K	0.0739 ± 0.03
295.55 K	0.074 ± 0.03
295.65 K	0.074 ± 0.03
295.75 K	0.0741 ± 0.03
295.85 K	0.0741 ± 0.03
295.95 K	0.0742 ± 0.03
296.05 K	0.0743 ± 0.03
296.15 K	0.0744 ± 0.03
296.25 K	0.0746 ± 0.03
296.35 K	0.0745 ± 0.03
296.45 K	0.0746 ± 0.03
296.55 K	0.0748 ± 0.03
296.65 K	0.0748 ± 0.03
296.75 K	0.0749 ± 0.03
296.85 K	0.075 ± 0.03
296.95 K	0.075 ± 0.03
297.05 K	0.0752 ± 0.03
297.15 K	0.0752 ± 0.03
297.25 K	0.0752 ± 0.03
297.35 K	0.0754 ± 0.03
297.45 K	0.0755 ± 0.03
297.55 K	0.0755 ± 0.03
297.65 K	0.0757 ± 0.03
297.75 K	0.0757 ± 0.03
297.85 K	0.0758 ± 0.03
297.95 K	0.0759 ± 0.03
298.05 K	0.076 ± 0.03
301.15 K	0.0789 ± 0.032
301.25 K	0.079 ± 0.032
301.35 K	0.0792 ± 0.032
301.55 K	0.0794 ± 0.032
301.65 K	0.0795 ± 0.032
301.75 K	0.0795 ± 0.032
301.95 K	0.0797 ± 0.032
302.05 K	0.0799 ± 0.032
302.15 K	0.08 ± 0.032
302.25 K	0.0801 ± 0.032
302.35 K	0.0802 ± 0.032
302.45 K	0.0802 ± 0.032
302.55 K	0.0803 ± 0.032
302.65 K	0.0803 ± 0.032
302.85 K	0.0806 ± 0.032
302.95 K	0.0807 ± 0.032
303.15 K	0.0809 ± 0.032
303.25 K	0.0811 ± 0.032
303.35 K	0.0811 ± 0.032
303.45 K	0.0812 ± 0.033
303.55 K	0.0814 ± 0.033
303.75 K	0.0816 ± 0.033
303.85 K	0.0817 ± 0.033
304.05 K	0.0818 ± 0.033
304.15 K	0.0819 ± 0.033
304.35 K	0.0821 ± 0.033
304.55 K	0.0823 ± 0.033
304.75 K	0.0825 ± 0.033
304.85 K	0.0826 ± 0.033
304.95 K	0.0827 ± 0.033
305.05 K	0.0829 ± 0.033
305.35 K	0.0831 ± 0.033
305.55 K	0.0831 ± 0.033
305.75 K	0.0836 ± 0.033
305.85 K	0.0838 ± 0.034
306.05 K	0.0839 ± 0.034
306.25 K	0.084 ± 0.034
306.35 K	0.0841 ± 0.034
306.45 K	0.0842 ± 0.034
306.65 K	0.0843 ± 0.034
306.75 K	0.0845 ± 0.034
306.95 K	0.0848 ± 0.034
307.05 K	0.0849 ± 0.034
307.25 K	0.0851 ± 0.034
307.55 K	0.0854 ± 0.034
307.65 K	0.0855 ± 0.034
307.85 K	0.0857 ± 0.034
308.15 K	0.086 ± 0.034
308.25 K	0.0861 ± 0.034
308.35 K	0.0862 ± 0.035
308.55 K	0.0862 ± 0.035
308.75 K	0.0864 ± 0.035
308.85 K	0.0866 ± 0.035
309.15 K	0.0871 ± 0.035
309.35 K	0.0872 ± 0.035
309.55 K	0.0874 ± 0.035
309.75 K	0.0876 ± 0.035
309.85 K	0.0877 ± 0.035
309.95 K	0.0878 ± 0.035
310.25 K	0.088 ± 0.035
310.45 K	0.0882 ± 0.035
310.55 K	0.0883 ± 0.035
310.65 K	0.0884 ± 0.035
310.95 K	0.0888 ± 0.035
311.05 K	0.089 ± 0.036
311.25 K	0.0893 ± 0.036
311.45 K	0.0894 ± 0.036
311.65 K	0.0894 ± 0.036
311.75 K	0.0896 ± 0.036
311.85 K	0.0897 ± 0.036
312.15 K	0.09 ± 0.036
312.35 K	0.0901 ± 0.036
312.45 K	0.0902 ± 0.036
312.55 K	0.0904 ± 0.036
312.75 K	0.0906 ± 0.036
312.95 K	0.0908 ± 0.036
313.15 K	0.091 ± 0.036
